Data as given in patent US20240159780A1, “PREDICTION OF AMOUNT OF IN VIVO DOPAMINE ETC., AND APPLICATION THEREOF” (Sumitomo Pharma Co., Ltd., priority 2021, published 2024).
“Also recorded” adds a separate entry of the source.

What was measured:
[1] = system: MPTP-induced PD-LID model rhesus monkeys; assay: Number of blinks (eye tracking) after L-DOPA in MPTP-induced PD-LID model rhesus monkeys; type: in vivo, rhesus monkey
[2] = system: MPTP-induced PD-LID model rhesus monkeys; assay: Dyskinesia score and generalized dyskinesia score in MPTP-induced PD-LID model rhesus monkeys; type: in vivo, rhesus monkey
[3] = system: PD-LID model rats; assay: Striatal dopamine release by microdialysis in PD-LID model rats; type: in vivo, rat; settings: levodopa i.p.
Method: As a representative experimental model for Parkinson's disease, a rat striatal dopaminergic neuron destruction model is known in which 6-hydroxydopamine (hereinafter sometimes referred to as “6-OHDA”) is locally administered to one side of the brain (6-OHDA unilateral treated rat (6-OHDA injured rat)). Male Wistar rats (12 weeks old, Japan SLC, Inc.) were used to prepare model animals. Desipramine hydrochloride (25 mg/kg; Wako Pure Chemical Industries, Ltd.) was intraperitoneally administered, and 30 minutes after the administration, inhalation anesthesia with isoflurane was performed using a general anesthesia machine for experimental animals. Under isoflurane anesthesia, the rat was fixed in a stereotaxic apparatus, the skin of the head was incised with a surgical scalpel to expose the cranial bone, and the coordinate of bregma, which is the starting point (AP: 0, ML: 0, DV: 0), was confirmed, and the coordinate of the right medial forebrain bundle (AP: −4.4 mm, ML: 1.5 mm, DV: 7.8 mm from bregma) was measured. […]
In order to measure striatal dopamine release, guide cannula implantation into the striatum of PD-LID model rats and chromatography were performed by a method described in a reference (Pharmacol Res Perspect. 2015 June; 3(3): e00142.). […] Using an HPLC-ECD system (EiCOM Co., Ltd.), the amount of dopamine in the collected dialysate was measured. […]

[4] = L-DOPA 22 mg/kg with Benserazide, oral

time after administration at which the dyskinesia score increased [2, 4]	time after administration from which the score of generalized dyskinesia declined [2, 4]	time after administration from which the score of generalized dyskinesia increased [2, 4]	time after administration of the peak dyskinesia score [2, 4]	time after administration of the peak score of generalized dyskinesia [2, 4]	decay of the dyskinesia score ([2]; L-DOPA 22 mg/kg with Benserazide, oral, measured for 180 minutes)	Structure (SMILES)	total number of blinks compared to vehicle ([1]; 30 to 120 minutes after administration (60 to 150 minutes after start of measurement), one individual)	time after administration from which the number of blinks increased ([1]; L-DOPA 22 mg/kg with Benserazide 1/4 weight, oral, blinks tallied every 3 minutes)	time of peak of number of blinks with an intermediate duration (0.16≤T<0.18) ([1]; after oral L-DOPA 22 mg/kg, rapid decrease, then gradual increase)	rapid changes and temporal decreases in the dopamine amount in the synaptic cleft in the striatum [3]	dyskinesia score ([2]; tandospirone ointment transdermal 19 hours prior to testing, with L-DOPA, vs non-tandospirone administration)
about 20 minutes	around 150 minutes	60 min	60 min	around 90 minutes	did not decay until 180 minutes	N[C@@H](Cc1ccc(O)c(O)c1)C(=O)O [L-DOPA, (S)-2-amino-3-(3,4-dihydroxyphenyl) propanoic acid]	tended to increase; also recorded: clear tendency to increase	about 30 minutes	around 30 minutes		
						O=C1[C@@H]2[C@H]3CC[C@H](C3)[C@@H]2C(=O)N1CCCCN1CCN(c2ncccn2)CC1 [tandospirone]				suppresses	decrease
